Assay [1] addresses T1, full-length NS3/NS4A-2 (HCV NS3 protease) (Hepatitis C virus genotype 1a, UniProt P27958).
T1 construct: Recombinant E. coli or Baculovirus full-length NS3 was diluted to 3.33 μM with assay buffer; made in house; host or cells: E. coli or baculovirus (BV) expression system
The experiment in a line: NS3-NS4 protease assay / NS3 inhibition assay (RETS1 substrate, fluorescence kinetic read). The conditions noted are these: recombinant E. coli or Baculovirus full-length NS3 with NS4A-2; read-out: NS3-NS4 IC50. Format: biochemical. In outline: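 Full-length NS3 from E. coli (2 nM in assay) or baculovirus (3 nM) was precomplexed with excess NS4A-2 peptide, then preincubated 10 min at room temperature with serially diluted compounds starting at 50 microM. Reaction was started with RETS1 substrate at 8 μM before addition and read kinetically for 30 min (ex 335/em 495 nm). Four-parameter IC50s were converted to Ki by Cheng-Prusoff using Km 2.03 μM (E. coli) or 1.74 μM (BV).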

In assay [2] the test system is HCV sub-genomic replicon in GS4.3 cells (HuH-7 hepatoma cells). The experiment in a line: Quantitation by ELISA of Neomycin phosphotransferase II (NPTII) in the HCV sub-genomic replicon, GS4.3. Format: cell-based, hepatitis C virus. The conditions noted are these: Hepatitis C virus, Huh-7; GS4.3 cells, 72 h incubation, NPTII ELISA; read-out: Replicon EC50. In outline: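 HuH-7 GS4.3 cells carrying HCV sub-genomic replicon 1377/NS3-3′, treated 72 h at 37 °C without G418 with 3-fold dilutions from 10 μM to 56 pM (1% DMSO). NPTII in cell lysates measured by direct ELISA with TMB readout at 450 nm. EC50 from 4-parameter fit of percent DMSO-control signal.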
A general note: In an ELISA, binding on a coated surface is turned into a signal by an enzyme label.

The results in this text go back to patent publication US7829665B2 (priority 2005, dated 2010).

T1 sequence (P27958 1027-1657): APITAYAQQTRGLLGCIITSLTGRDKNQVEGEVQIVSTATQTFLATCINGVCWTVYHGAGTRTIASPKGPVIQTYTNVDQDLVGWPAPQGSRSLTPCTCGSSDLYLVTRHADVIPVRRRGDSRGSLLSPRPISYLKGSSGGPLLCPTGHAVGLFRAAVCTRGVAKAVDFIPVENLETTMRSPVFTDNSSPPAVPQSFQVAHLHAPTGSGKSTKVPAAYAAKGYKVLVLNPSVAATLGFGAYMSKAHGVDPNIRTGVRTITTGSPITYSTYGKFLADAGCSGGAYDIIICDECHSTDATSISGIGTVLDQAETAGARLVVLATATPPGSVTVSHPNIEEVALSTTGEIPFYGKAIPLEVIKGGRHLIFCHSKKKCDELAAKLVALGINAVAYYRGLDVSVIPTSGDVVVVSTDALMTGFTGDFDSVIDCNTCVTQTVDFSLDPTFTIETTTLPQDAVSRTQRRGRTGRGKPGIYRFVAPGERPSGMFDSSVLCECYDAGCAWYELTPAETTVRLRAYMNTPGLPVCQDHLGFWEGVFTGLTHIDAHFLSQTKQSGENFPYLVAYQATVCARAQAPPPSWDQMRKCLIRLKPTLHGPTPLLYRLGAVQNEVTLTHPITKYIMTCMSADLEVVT

Take `O=C(CCO)N[C@H]1CCCCC/C=C\[C@@H]2C[C@@]2(C(=O)NS(=O)(=O)C2CC2)NC(=O)[C@@H]2C[C@@H](OC(=O)N3Cc4cccc(F)c4C3)CN2C1=O` [Compound 251]: in assay [1], the IC50 was below 0.1 µM. The EC50 in assay [2] was below 10 µM.

Consider `CC(C)(O)CC(=O)N[C@H]1CCCCC/C=C\[C@@H]2C[C@@]2(C(=O)NS(=O)(=O)C2CC2)NC(=O)[C@@H]2C[C@@H](OC(=O)N3Cc4cccc(F)c4C3)CN2C1=O` [Compound 252], for which, in assay [1], the IC50 is below 0.1 µM. In addition, the EC50 in assay [2] is below 10 µM.

Turning to `CC(CO)(CO)C(=O)N[C@H]1CCCCC/C=C\[C@@H]2C[C@@]2(C(=O)NS(=O)(=O)C2CC2)NC(=O)[C@@H]2C[C@@H](OC(=O)N3Cc4cccc(F)c4C3)CN2C1=O` [Compound 253], the IC50 in assay [1] is below 0.1 µM. The EC50 in assay [2] was below 10 µM.

Take `CC(C)(CO)C(=O)N[C@H]1CCCCC/C=C\[C@@H]2C[C@@]2(C(=O)NS(=O)(=O)C2CC2)NC(=O)[C@@H]2C[C@@H](OC(=O)N3Cc4cccc(F)c4C3)CN2C1=O` [Compound 254]: in assay [1], the IC50 is below 0.1 µM. Also, in assay [2], the EC50 is below 1 µM.

In the case of `CC(C)(C)OC(=O)N[C@H]1CCCCC/C=C\[C@@H]2C[C@@]2(C(=O)NS(=O)(=O)C2CC2)NC(=O)[C@@H]2C[C@@H](OC(=O)N3CCc4cccc(Cl)c4C3)CN2C1=O` [Compound 255], in assay [1], the IC50 is below 0.1 µM. For the same compound, the EC50 in assay [2] was below 0.1 µM.

For `CC(C)(C)OC(=O)N[C@H]1CCCCC/C=C\[C@@H]2C[C@@]2(C(=O)NS(=O)(=O)C2CC2)NC(=O)[C@@H]2C[C@@H](OC(=O)N3CCc4c(Cl)ccc(Cl)c4C3)CN2C1=O` [Compound 256], the IC50 in assay [1] is below 0.1 µM. Moreover, the EC50 in assay [2] was below 0.1 µM.

Consider `CC(C)(C)OC(=O)N[C@H]1CCCCC/C=C\[C@@H]2C[C@@]2(C(=O)NS(=O)(=O)C2CC2)NC(=O)[C@@H]2C[C@@H](OC(=O)N3CCc4cccc(F)c4C3)CN2C1=O` [Compound 257], for which the half-maximal inhibitory concentration (IC50) in assay [1] was below 0.1 µM. Also, in assay [2], the concentration for a half-maximal effect (EC50) was below 0.1 µM.

`CC(C)(C)OC(=O)N[C@H]1CCCCC/C=C\[C@@H]2C[C@@]2(C(=O)NS(=O)(=O)C2CC2)NC(=O)[C@@H]2C[C@@H](OC(=O)N3CCc4c(F)ccc(F)c4C3)CN2C1=O` [Compound 258]: in assay [1], the IC50 is below 0.1 µM. Further, in assay [2], the EC50 is below 0.1 µM.

Turning to `CC(C)(C)OC(=O)N[C@H]1CCCCC/C=C\[C@@H]2C[C@@]2(C(=O)NS(=O)(=O)C2CC2)NC(=O)[C@@H]2C[C@@H](OC(=O)N3CCc4c(F)ccc(Cl)c4C3)CN2C1=O` [Compound 259], the IC50 in assay [1] is below 0.1 µM. Further, the EC50 in assay [2] is below 0.1 µM.

With `CC(C)(C)OC(=O)N[C@H]1CCCCC/C=C\[C@@H]2C[C@@]2(C(=O)NS(=O)(=O)C2CC2)NC(=O)[C@@H]2C[C@@H](OC(=O)N3CCc4c(Cl)ccc(F)c4C3)CN2C1=O` [Compound 260], in assay [1], the IC50 was below 0.1 µM. The EC50 in assay [2] is below 0.1 µM.

As for `CC(C)(C)c1c(N[C@H]2CCCCC/C=C\[C@@H]3C[C@@]3(C(=O)NS(=O)(=O)C3CC3)NC(=O)[C@@H]3C[C@@H](OC(=O)N4Cc5cccc(F)c5C4)CN3C2=O)c(=O)c1=O` [Compound 261], in assay [1], the concentration for half-maximal inhibition (IC50) was below 0.1 µM. In addition, the EC50 in assay [2] is below 1 µM.

Consider `CC(=O)N[C@H](C(=O)N[C@H]1CCCCC/C=C\[C@@H]2C[C@@]2(C(=O)NS(=O)(=O)C2CC2)NC(=O)[C@@H]2C[C@@H](OC(=O)N3Cc4cccc(Cl)c4C3)CN2C1=O)C1CCCCC1` [Compound 262], for which the IC50 in assay [1] is below 0.1 µM. Moreover, the EC50 in assay [2] was below 1 µM.

With `O=C(N[C@H](C(=O)N[C@H]1CCCCC/C=C\[C@@H]2C[C@@]2(C(=O)NS(=O)(=O)C2CC2)NC(=O)[C@@H]2C[C@@H](OC(=O)N3Cc4cccc(Cl)c4C3)CN2C1=O)C1CCCCC1)c1cnccn1` [Compound 263], in assay [1], the IC50 is below 0.1 µM. Besides, the concentration giving a half-maximal response (EC50) in assay [2] is below 0.1 µM.

For `CN(C(=O)[C@@]12C[C@H]1/C=C\CCCCC[C@H](NC(=O)OC(C)(C)C)C(=O)N1C[C@H](OC(=O)N3Cc4cccc(F)c4C3)C[C@H]1C(=O)N2)S(=O)(=O)C1CC1` [Compound 264], in assay [1], the IC50 is below 10 µM. Further, in assay [2], the EC50 is above 10 µM.

Turning to `CC(C)(C)OCC(=O)N[C@H]1CCCCC/C=C\[C@@H]2C[C@@]2(C(=O)NS(=O)(=O)C2CC2)NC(=O)[C@@H]2C[C@@H](OC(=O)N3Cc4cccc(Cl)c4C3)CN2C1=O` [Compound 266], the IC50 in assay [1] is below 0.1 µM. The EC50 in assay [2] is below 0.1 µM.

On to `CC(C)(C)OC(=O)N[C@H]1CCCC/C=C\[C@@H]2C[C@@]2(C(=O)NS(=O)(=O)C2CC2)NC(=O)[C@@H]2C[C@@H](OC(=O)N3Cc4cccc(F)c4C3)CN2C1=O` [Compound 267], for which the IC50 in assay [1] was below 0.1 µM. In assay [2], the EC50 was below 0.1 µM.

For `CC(C)(C)OC(=O)N[C@H]1CCCCCCC[C@@H]2C[C@@]2(C(=O)NS(=O)(=O)C2CC2)NC(=O)[C@@H]2C[C@@H](OC(=O)N3Cc4cccc(F)c4C3)CN2C1=O` [Compound 268], the IC50 in assay [1] is below 0.1 µM. Also, the EC50 in assay [2] is below 0.1 µM.

On to `CC(C)(C)OC(=O)N[C@H]1CCCCCC[C@@H]2C[C@@]2(C(=O)NS(=O)(=O)C2CC2)NC(=O)[C@@H]2C[C@@H](OC(=O)N3Cc4cccc(F)c4C3)CN2C1=O` [Compound 269], for which the IC50 in assay [1] was below 0.1 µM. For the same compound, the EC50 in assay [2] was below 0.1 µM.

In the case of `CC[C@@H]1C[C@H]2C(=O)N[C@]3(C(=O)NS(=O)(=O)C4CC4)C[C@H]3/C=C\CCCCC[C@H](NC(=O)OC3CCCC3)C(=O)N2C1` [Compound 314], the IC50 in assay [1] is below 0.1 µM. In assay [2], the EC50 was below 10 µM.

`O=C(N[C@H]1CCCCC/C=C\[C@@H]2C[C@@]2(C(=O)NS(=O)(=O)C2CC2)NC(=O)[C@@H]2CCCN2C1=O)C1CC1` [Compound 317]: the IC50 in assay [1] is below 1 µM. Moreover, in assay [2], the EC50 was above 10 µM.

`CC[C@@H]1C[C@H]2C(=O)N[C@]3(C(=O)NS(=O)(=O)C4CC4)C[C@H]3/C=C\CCCCC[C@H](NC(=O)C3CC3)C(=O)N2C1` [Compound 318]: the IC50 in assay [1] was below 1 µM. The EC50 in assay [2] was above 10 µM.

In the case of `CCCNC(=O)[C@@]12C[C@H]1/C=C\CCCCC[C@H](NC(=O)OC(C)(C)C)C(=O)N1C[C@H](OC(=O)N3Cc4ccccc4C3)C[C@H]1C(=O)N2` [Compound 600], the IC50 in assay [1] was below 0.1 µM. In addition, the concentration for a half-maximal effect (EC50) in assay [2] is below 1 µM.

As for `CC(C)(C)OC(=O)N[C@H]1CCCCC/C=C\[C@@H]2C[C@@]2(C(=O)Nc2ccccc2)NC(=O)[C@@H]2C[C@@H](OC(=O)N3Cc4ccccc4C3)CN2C1=O` [Compound 601], the IC50 in assay [1] is below 0.1 µM. The EC50 in assay [2] is below 1 µM.

In the case of `COC(=O)c1cccc(CNC(=O)[C@@]23C[C@H]2/C=C\CCCCC[C@H](NC(=O)OC(C)(C)C)C(=O)N2C[C@H](OC(=O)N4Cc5cccc(F)c5C4)C[C@H]2C(=O)N3)c1` [Compound 602], the IC50 in assay [1] is below 1 µM. In addition, the EC50 in assay [2] was below 1 µM.

As to `CC(C)(C)OC(=O)N[C@H]1CCCCC/C=C\[C@@H]2C[C@@]2(C(=O)NCC2CC2)NC(=O)[C@@H]2C[C@@H](OC(=O)N3Cc4cccc(F)c4C3)CN2C1=O` [Compound 603], in assay [1], the IC50 is below 1 µM. Besides, the EC50 in assay [2] was below 1 µM.

`CC(C)(C)OC(=O)N[C@H]1CCCCC/C=C\[C@@H]2C[C@@]2(C(=O)NCCN2CCCCC2)NC(=O)[C@@H]2C[C@@H](OC(=O)N3Cc4cccc(F)c4C3)CN2C1=O` [Compound 604]: in assay [1], the IC50 was above 10 µM. Also, in assay [2], the EC50 is above 10 µM.

Consider `CC(C)(C)OC(=O)N[C@H]1CCCCC/C=C\[C@@H]2C[C@@]2(C(=O)NCc2cccc(C(O)C(F)(F)F)c2)NC(=O)[C@@H]2C[C@@H](OC(=O)N3Cc4cccc(F)c4C3)CN2C1=O` (some centres unmarked) [Compound 605], for which the IC50 in assay [1] is below 1 µM. The EC50 in assay [2] is below 1 µM.

Turning to `CC(C)(C)OC(=O)N[C@H]1CCCCC/C=C\[C@@H]2C[C@@]2(C(=O)NCc2ccc(C(O)C(F)(F)F)cc2)NC(=O)[C@@H]2C[C@@H](OC(=O)N3Cc4cccc(F)c4C3)CN2C1=O` (some centres unmarked) [Compound 606], the IC50 in assay [1] was below 1 µM. In addition, the EC50 in assay [2] was below 1 µM.

For `CC(C)(C)OC(=O)N[C@H]1CCCCC/C=C\[C@@H]2C[C@@]2(C(=O)NC2CC2)NC(=O)[C@@H]2C[C@@H](OC(=O)N3Cc4cccc(F)c4C3)CN2C1=O` [Compound 609], the IC50 in assay [1] was below 0.1 µM. The EC50 in assay [2] is below 1 µM.

Take `CN(C)C(=O)[C@@]12C[C@H]1/C=C\CCCCC[C@H](NC(=O)OC(C)(C)C)C(=O)N1C[C@H](OC(=O)N3Cc4cccc(F)c4C3)C[C@H]1C(=O)N2` [Compound 610]: the IC50 in assay [1] is below 1 µM. For the same compound, the EC50 in assay [2] is above 10 µM.

Take `CC(C)(C)OC(=O)N[C@H]1CCCCC/C=C\[C@@H]2C[C@@]2(C(=O)NCCF)NC(=O)[C@@H]2C[C@@H](OC(=O)N3Cc4cccc(F)c4C3)CN2C1=O` [Compound 611]: the IC50 in assay [1] was below 1 µM. Besides, the EC50 in assay [2] is below 10 µM.

As for `CC(C)(C)OC(=O)N[C@H]1CCCCC/C=C\[C@@H]2C[C@@]2(C(=O)NCC(F)F)NC(=O)[C@@H]2C[C@@H](OC(=O)N3Cc4cccc(F)c4C3)CN2C1=O` [Compound 612], the IC50 in assay [1] was below 1 µM. Besides, the EC50 in assay [2] is below 1 µM.

In the case of `CC(C)(C)OC(=O)N[C@H]1CCCCC/C=C\[C@@H]2C[C@@]2(C(=O)NCC(O)(C(F)(F)F)C(F)(F)F)NC(=O)[C@@H]2C[C@@H](OC(=O)N3Cc4cccc(F)c4C3)CN2C1=O` [Compound 613], the IC50 in assay [1] was below 1 µM. The EC50 in assay [2] was below 1 µM.

Regarding `CC(C)(C)OC(=O)N[C@H]1CCCCC/C=C\[C@@H]2C[C@@]2(C(=O)Nc2nccs2)NC(=O)[C@@H]2C[C@@H](OC(=O)N3Cc4cccc(F)c4C3)CN2C1=O` [Compound 614], the IC50 in assay [1] is below 1 µM. In addition, in assay [2], the EC50 was below 1 µM.

One may read the IC50 as the concentration that gives 50% inhibition. A word on the EC50: it is the midpoint of the concentration-response curve.
